Results as given in article PMC5325082 (Molecular Pharmacology, 2017).

What was measured:
Assay type in all cases: cell-based
[1] = target: rat α9α10R117M receptor (Rattus norvegicus, UniProt P43144+Q9JLB5, R143M); assay: ACh-evoked currents, two-electrode voltage clamp in Xenopus laevis oocytes
Source text: (§1) cDNAs encoding Gallus gallus (chick) or Rattus norvegicus (rat) α9 and α10 nAChR subunits were subcloned into a modified pGEMHE vector for expression studies in Xenopus laevis oocytes. Capped cRNAs were in vitro transcribed from linearized plasmid DNA templates using RiboMAX Large Scale RNA Production System (Promega, Madison, WI). Mutant subunits were produced using Quick Change XL II kit (Stratagene, La Jolla, CA). Amino acid sequences of rat and chicken α9, α10, and Torpedo α1 subunits were aligned using ClustalW (EMBL-EBI, Wellcome Genome Campus, Hinxton, Cambridgeshire). Residues were numbered according to the corresponding Torpedo α1 subunit mature protein ([Karlin, 2002]).
(§2) The maintenance of Xenopus laevis and the preparation and cRNA injection of stage V and VI oocytes have been described in detail elsewhere ([Verbitsky et al., 2000]). Typically, oocytes were injected with 50 nl of RNase-free water containing 0.01–1.0 ng of cRNA (at a 1:1 molar ratio when pairwise combined) and maintained in Barth’s solution at 18°C. Electrophysiological recordings were performed 2–6 days after cRNA injection under two-electrode voltage clamp with an Oocyte Clamp OC-725B or C amplifier (Warner Instruments Corp., Hamden, CT). Recordings were filtered at a corner frequency of 10 Hz using a 900BT Tunable Active Filter (Frequency Devices Inc., Ottawa, IL). Data acquisition was performed using a Patch Panel PP-50 LAB/1 interface (Warner Instruments Corp.) at a rate of 10 points per second. Both voltage and current electrodes were filled with 3 M KCl and had resistances of ∼1 MΩ. Data were analyzed using Clampfit from the pClamp 6.1 software (Molecular Devices, Sunnyvale, CA). During electrophysiological recordings, oocytes were continuously superfused (∼15 ml/min) with normal frog saline composed of: 115 mM NaCl, 2.5 mM KCl, 1.8 mM CaCl2, and 10 mM HEPES buffer, pH 7.2. […] Unless otherwise indicated, the membrane potential was clamped to −70 mV. To minimize activation of the endogenous Ca^2+ sensitive chloride current ([Elgoyhen et al., 2001]), all experiments were performed in oocytes incubated with the Ca^2+ chelator 1,2-bis(2-aminophenoxy)ethane-N,N,N′,N′-tetraacetic acid (acetoxymethyl ester) (100 µM) for 3 hours before electrophysiological recordings.
(§3) Concentration-response curves were normalized to the maximal agonist response in each oocyte. The mean and S.E.M. values of the responses are represented. […] Data were analyzed using Clampfit from the pClamp 6.1 software. […]

[2] = target: T1, rat α9α10W55T receptor (Rattus norvegicus, UniProt P43144+Q9JLB5, W81T); assay: as above
T1 construct: expressed in transfected cells; host or cells: Xenopus laevis oocytes (cRNA injection)
Source text: as §1, §2, §3

[3] = target: chicken α9α10 nAChR (wild type) (Gallus gallus, UniProt Q9I8C7+Q9PTS8); assay: ACh-evoked currents, two-electrode voltage clamp in Xenopus laevis oocytes, wild-type receptor
Source text: as §1
The maintenance of Xenopus laevis and the preparation and cRNA injection of stage V and VI oocytes have been described in detail elsewhere ([Verbitsky et al., 2000]). Typically, oocytes were injected with 50 nl of RNase-free water containing 0.01–1.0 ng of cRNA (at a 1:1 molar ratio when pairwise combined) and maintained in Barth’s solution at 18°C. […] Data were analyzed using Clampfit from the pClamp 6.1 software (Molecular Devices, Sunnyvale, CA). […]
Concentration-response curves were normalized to the maximal agonist response in each oocyte. […] Data were analyzed using Clampfit from the pClamp 6.1 software.

[4] = target: chicken α9α10W55T receptor (Gallus gallus, UniProt Q9I8C7+Q9PTS8, W83T); assay: ACh-evoked currents, two-electrode voltage clamp in Xenopus laevis oocytes
Source text: as §1
(§4) The maintenance of Xenopus laevis and the preparation and cRNA injection of stage V and VI oocytes have been described in detail elsewhere ([Verbitsky et al., 2000]). Typically, oocytes were injected with 50 nl of RNase-free water containing 0.01–1.0 ng of cRNA (at a 1:1 molar ratio when pairwise combined) and maintained in Barth’s solution at 18°C. Electrophysiological recordings were performed 2–6 days after cRNA injection under two-electrode voltage clamp with an Oocyte Clamp OC-725B or C amplifier (Warner Instruments Corp., Hamden, CT). Recordings were filtered at a corner frequency of 10 Hz using a 900BT Tunable Active Filter (Frequency Devices Inc., Ottawa, IL). Data acquisition was performed using a Patch Panel PP-50 LAB/1 interface (Warner Instruments Corp.) at a rate of 10 points per second. Both voltage and current electrodes were filled with 3 M KCl and had resistances of ∼1 MΩ. Data were analyzed using Clampfit from the pClamp 6.1 software (Molecular Devices, Sunnyvale, CA). During electrophysiological recordings, oocytes were continuously superfused (∼15 ml/min) with normal frog saline composed of: 115 mM NaCl, 2.5 mM KCl, 1.8 mM CaCl2, and 10 mM HEPES buffer, pH 7.2. ACh was added to the perfusion solution for application. Unless otherwise indicated, the membrane potential was clamped to −70 mV. To minimize activation of the endogenous Ca^2+ sensitive chloride current ([Elgoyhen et al., 2001]), all experiments were performed in oocytes incubated with the Ca^2+ chelator 1,2-bis(2-aminophenoxy)ethane-N,N,N′,N′-tetraacetic acid (acetoxymethyl ester) (100 µM) for 3 hours before electrophysiological recordings.
(§5) Concentration-response curves were normalized to the maximal agonist response in each oocyte. The mean and S.E.M. values of the responses are represented. Agonist concentration-response curves were iteratively fitted, using Prism 5 software (GraphPad Software Inc., La Jolla, CA), with the equation: I/Imax = A^nH/(A^nH + EC50^nH), where I is the peak inward current evoked by the agonist at concentration A; Imax is the current evoked by the concentration of the agonist eliciting a maximal response; EC50 is the concentration of the agonist inducing a half-maximal current response; and nH is the Hill coefficient. Data were analyzed using Clampfit from the pClamp 6.1 software.

[5] = target: T2, rat double-mutant α9Y190Tα10Y190T receptors (Rattus norvegicus, UniProt P43144+Q9JLB5, Y216T/Y217T); assay: as above; conditions: 1 or 30 mM ACh, n = 8
T2 construct: expressed in transfected cells; host or cells: Xenopus laevis oocytes (cRNA injection)
Source text: as §1, §4, §5

[6] = target: rat α9W55Tα10 receptor (Rattus norvegicus, UniProt P43144+Q9JLB5, W82T); assay: as above
Source text: as §1, §2, §5

[7] = target: rat α9CC/SSα10 receptor (Rattus norvegicus, UniProt P43144+Q9JLB5, C219S/C220S); assay: as above
Source text: as §1, §2, §5

[8] = target: rat α9Y190Tα10 receptor (Rattus norvegicus, UniProt P43144+Q9JLB5, Y217T); assay: as above
Source text: as §1, §2, §5

[9] = target: rat α9α10Y190T receptor (Rattus norvegicus, UniProt P43144+Q9JLB5, Y216T); assay: as above
Source text: as §1, §2, §5

[10] = target: rat α9α10CC/SS receptor (Rattus norvegicus, UniProt P43144+Q9JLB5, C218S/C219S); assay: as above
Source text: as §1, §2, §5

[11] = target: rat α9CC/SSα10CC/SS receptor (Rattus norvegicus, UniProt P43144+Q9JLB5, C218S/C219S/C220S); assay: as above
Source text: as §1, §2, §5

CC(=O)OCC[N+](C)(C)C [ACh, acetylcholine]
Imax (maximal evoked current) [1]: 107 ± 38 nA | Imax (maximal evoked current) [2]: 177 ± 81 nA | EC50 [3]: 16 ± 2 µM | Imax (maximal evoked current) [3]: 100 ± 12 nA | EC50 [4]: 334 ± 13 µM | Imax (maximal evoked current) [4]: 159 ± 32 nA | Response to ACh [5]: failed to respond | Imax (maximal evoked current) [6]: 42 ± 4 nA | Imax (maximal evoked current) [7]: 402 ± 103 nA | Imax (maximal evoked current) [8]: 112 ± 6 nA | Imax (maximal evoked current) [9]: 336 ± 91 nA | Imax (maximal evoked current) [10]: 571 ± 113 nA | Imax (maximal evoked current) [11]: 360 ± 119 nA
